Tests used:
CT26 tumor cells [1] = test: Subcutaneous CT26 murine colorectal cancer model (Example 5), tumor growth inhibition; type: in vivo, mouse; details: CT26 s.c., female BALB/c mice
Method: (§1) The objective of this study was to evaluate the in vivo anti-tumor efficacy of Compound 85 in the subcutaneous CT26 murine colorectal cancer model in female BALB/c mice. Compound 85 test particle was delivered via PO when tumors reached 80 mm^3. The compound was assessed at six different dose levels (3 mpk, l0 mpk, 30 mpk for BID and 6 mpk, 20 mpk and 60 mpk for QD). Tumor volumes and body weight were measured twice per week after the initiation of treatment. Compound 85 level was assessed in the plasma and tumor at the end of the study.
The CT26 tumor cells were maintained in vitro with RPMI-1640 medium supplemented with 10% fetal bovine serum at 37° C. in an atmosphere of 5% CO2. The cells in exponential growth phase were harvested and quantitated by cell counter before tumor inoculation.
Each mouse was inoculated subcutaneously in the right lower flank region with CT26 tumor cells (5×10^5) in 0.1 ml of PBS.
The randomization started when the mean tumor size reaches approximately 80.7 mm^3. In total, 80 mice were enrolled in the study and randomly allocated into 8 study groups, with 10 mice per group. Randomization was performed based on the “Matched distribution” method (Study Director™ software, version 3.1.399.19). The date of randomization was denoted as day 0.
(§2) After tumor inoculation, the animals were checked daily for morbidity and mortality. During routine monitoring, the animals were checked for any effects of tumor growth and treatments on behavior such as mobility, food and water consumption, body weight gain/loss (Body weights would be measured twice per week after randomization), eye/hair matting and any other abnormalities. Mortality and observed clinical signs were recorded for individual animals in detail.
(§3) Tumor volumes were measured twice per week after randomization in two dimensions using a caliper, and the volume was expressed in mm3 using the formula: V=(L×W×W)/2, where V is tumor volume, L is tumor length (the longest tumor dimension) and W is tumor width (the longest tumor dimension perpendicular to L). Dosing as well as tumor and body weight measurements were conducted in a Laminar Flow Cabinet.

H22 tumor cells = test: Subcutaneous H22 murine liver cancer model, tumor growth inhibition; type: in vivo, mouse; details: for TGI (%): H22 s.c., female BALB/c mice
Method: The objective of this pharmacology study was to evaluate the anti-tumor growth efficacy of Compound 85 in the treatment of the subcutaneous H22 murine liver cancer model in female BALB/c mice. Compound 85 test particles were delivered via PO when the average tumor volume reached approximately 80 mm^3. […] Tumor volumes and body weight were measured three times per week after the initiation of treatment.
The H22 tumor cells were maintained in vitro with RPMI-1640 medium supplemented with 10% fetal bovine serum at 37° C. in an atmosphere of 5% CO2. Cells in the exponential growth phase were harvested and quantified by cell counter before tumor inoculation.
Each mouse was inoculated subcutaneously in the right front flank region with H22 tumor cells (1×10e6) in 0.1 ml of PBS for tumor development.
The randomization started when the mean tumor size reaches approximately 79.89 mm^A3. […] Randomization was performed based on “Matched distribution” method/“Stratified” method (Study Director™ software, version 3.1.399.19)/randomized block design. The date of randomization was denoted as day 0.
After tumor inoculation, the animals were checked daily for morbidity and mortality. During routine monitoring, the animals were checked for any effects of tumor growth and treatments on behavior such as mobility, food and water consumption, body weight gain/loss (Body weights were measured thrice per week after randomization), eye/hair matting and any other abnormalities. Mortality and observed clinical signs were recorded for individual animals in detail.
Tumor volumes were measured three times per week after randomization in two dimensions using a caliper, and the volume was expressed in mm3 using the formula: V=(L×W×W)/2, where V is tumor volume, L is tumor length (the longest tumor dimension) and W is tumor width (the longest tumor dimension perpendicular to L). Dosing, as well as tumor and body weight measurements, were conducted in a Laminar Flow Cabinet.
Tumor growth inhibition (TGI): TGI % is an indication of antitumor activity, expressed as: TGI (%)=100×(1−T/C). T and C are the mean tumor volume (or weight) of the treated and control groups on a given day.
The treatment was performed for 21 days and the study was terminated on day 20 post dosing initiation.

CT26 tumor cells [2] = test: Subcutaneous CT26 murine colorectal cancer model (Example 6), tumor growth inhibition; type: in vivo, mouse; details: day 13, CT26 s.c., female BALB/c mice
Method: The objective of this study was to evaluate preclinically the in vivo dose of test compounds in the treatment of the subcutaneous CT26 murine colorectal cancer model in female BALB/c mice.
The CT26 tumor cells were maintained in vitro with RPMI-1640 medium supplemented with 10% fetal bovine serum at 37° C. in an atmosphere of 5% CO2 in air. The cells in exponential growth phase was harvested and quantitated by cell counter before tumor inoculation.
Each mouse was inoculated subcutaneously in the right lower flank region with CT26 tumor cells (5×10^5) in 0.1 ml of PBS for tumor development.
The randomization started when the mean tumor size reaches approximately 89.91 mm^3. Totally 80 mice were enrolled in the study and randomly allocated to 8 study groups, with 10 mice per group. Randomization was performed based on “Matched distribution” method (Study Director™ software, version 3.1.399.19). The date of randomization was denoted as day 0 (Jul. 8, 2021).
as §2, §3
Tumor growth inhibition (TGI): TGI % is an indication of antitumor activity, and expressed as: TGI (%)=100×(1−T/C). T and C are the mean tumor volume (or weight) of the treated and control groups, respectively, on a given day.
The treatment was performed for 14 days. There was no extension of the treatment, the study was terminated on Day 13 post dosing initiation.
To compare tumor volumes of different groups at a pre-specified day, Bartlett's test was used to check the assumption of homogeneity of variance across all groups. When the p-value of Bartlett's test was >=0.05, we ran one-way ANOVA to test overall equality of means across all groups. If the p-value of the one-way ANOVA was <0.05, post hoc testing was performed by running Tukey's HSD (honest significant difference) tests for all pairwise comparisons, and Dunnett's tests for comparing each treatment group with the vehicle group. […]

[3] = Body weight and mortality monitoring in CT26 model (Example 5); type: in vivo
Method: as §1, §2
The body weights and tumor volumes were measured by using Study Director™ software (version 3.1.399.19).

Row | SMILES | TGI(%) on Day 18 (CT26 tumor cells [1]; 30 mpk BID p.o.) [%] | TGI (%) (H22 tumor cells; 60 mpk BID p.o.) | TGI (%) (CT26 tumor cells [2]; 30 mg/kg BID p.o.) | TGI (%) (CT26 tumor cells [2]; 60 mg/kg BID p.o.) | TGI (%) (CT26 tumor cells [2]; 100 mg/kg BID p.o.) | TGI(%) on Day 18 (CT26 tumor cells [1]; 3 mpk BID p.o.) [%] | TGI(%) on Day 18 (CT26 tumor cells [1]; 6 mpk QD p.o.) [%] | TGI(%) on Day 18 (CT26 tumor cells [1]; 10 mpk BID p.o.) [%] | TGI(%) on Day 18 (CT26 tumor cells [1]; 20 mpk QD p.o.) [%] | TGI(%) on Day 18 (CT26 tumor cells [1]; 60 mpk QD p.o.) [%] | loss of average body weight ([3]; day 3, 30 mpk BID p.o.) | loss of average body weight ([3]; day 3, 60 mpk QD p.o.) | mortality ([3]; mouse, in vivo) | TGI (%) (H22 tumor cells; 2 mpk QD p.o.) | TGI (%) (H22 tumor cells; 10 mpk QD p.o.) | TGI (%) (H22 tumor cells; 20 mpk QD p.o.) | TGI (%) (H22 tumor cells; 40 mpk QD p.o.) | minimal efficacious dose (lowest dose showing significant tumor inhibition) (H22 tumor cells; QD p.o., single agent) [mpk] | maximum TGI (H22 tumor cells; high doses, 20 mpk or 40 mpk QD) [%]
1 | C[C@H]1CCCN(Cc2cc(C(F)(F)F)c3cn(-c4cccc(C5(Cc6nncn6C)COC5)c4)c(=O)n3c2)C1 [Compound 29] | 17.3 | 63.97 | 10.78 | 41.76 | 50.83 | – | – | – | – | – | – | – | – | – | – | – | – | – | –
2 | C[C@H]1CCCN(Cc2cc(C(F)(F)F)c3cn(-c4cncc([C@H](c5nncn5C)C5CCC5)c4)c(=O)n3c2)C1 [Compound 85] | 37.9 | – | 43.02 | – | – | 18.7 | 3.8 | 24.4 | 22.2 | 33.9 | less than 5% | less than 5% | No mortality was reported | 19.56 | 41.21 | 68.54 | 64.65 | 6 | ~65
